Source: ChEMBL document CHEMBL6120994, “Unravelling the potential of natural chelating agents in the control of Staphylococcus aureus and Pseudomonas aeruginosa biofilms” (Eur J Med Chem, 2025)
Converted amounts (≈) assume the structure as drawn.

Columns and labels:
Assay type in all cases: functional
Pseudomonas aeruginosa = test: Antibiofilm activity against Pseudomonas aeruginosa PAO1 biofilm assessed as reduction of bacterial biomass by crystal violet staining based analysis
Staphylococcus aureus = test: Antibacterial activity against Staphylococcus aureus ATCC 6538 assessed as inhibition of bacterial growth measured after 24 hrs by broth microdilution method
HepG2 = test: Protection against iron(III)-induced cytotoxicity in human HepG2 cells assessed as cell mass at 250 to 750 ug/ml measured after 24 hrs by SRB binding assay (reference value: 56.2 +/-5.4%); settings: dose 250-750 µg/ml, at 250 to 750 µg/mL

In the case of `O=c1cc(CO)occ1O` [KOJIC ACID], the “inhibition (INH)” value (Pseudomonas aeruginosa) is reported as 27%, the MIC (Staphylococcus aureus) is reported as 1400 µg/mL (≈ 9.85 mM) and the Activity (HepG2) is reported as greater than 61.8%.
